Earlier results as cited in USRE41489E1 (priority 1997, dated 2010).
Read-outs that look alike come from different tables or passages of the source.

Key:
[1] = conscious postoperative patients
δ receptors = δ receptors (Homo sapiens, UniProt P41143)
[2] = parenteral, on a weight basis
[3] = rats
[4] = estimated
[5] = not given; remark: listed apart in the source
[6] = intravenous single dose of about 0.3 mg

δ receptors, sequence (P41143 whole entry): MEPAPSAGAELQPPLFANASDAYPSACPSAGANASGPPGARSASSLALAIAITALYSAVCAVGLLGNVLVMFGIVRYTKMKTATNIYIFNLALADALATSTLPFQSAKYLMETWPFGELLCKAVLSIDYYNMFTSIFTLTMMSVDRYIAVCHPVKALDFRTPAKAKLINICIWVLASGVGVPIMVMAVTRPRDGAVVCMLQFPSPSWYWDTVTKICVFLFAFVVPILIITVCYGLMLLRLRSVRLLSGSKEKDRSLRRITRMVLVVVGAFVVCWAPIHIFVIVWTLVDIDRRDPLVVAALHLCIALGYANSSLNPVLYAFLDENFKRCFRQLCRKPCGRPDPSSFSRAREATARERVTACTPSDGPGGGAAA

CO[C@]12CC[C@@]3(C[C@@H]1[C@](C)(O)C(C)(C)C)[C@H]1Cc4ccc(O)c5c4[C@@]3(CCN1CC1CC1)[C@H]2O5 [buprenorphine, 21-cyclopropyl-7-[(S)-1-hydroxy-1,2,2-trimethylpropyl]-6,14-endo-ethano-6,7,8,14-tetrahydrooripavine]
total plasma clearance [1]: approximately 1.28 l/minute | binding affinity to δ receptors (δ receptors): lower affinity | analgesic potency relative to meperidine [2]: about 600 times | analgesic potency relative to pentazocine [2]: about 200 times | time to highest concentrations in the liver ([3]; intramuscular administration): ≤ 40 min | time to highest concentrations in the liver ([3]; oral administration): ≤ 10 min | oral bioavailability [4]: 15% | bound to plasma proteins (plasma proteins): approximately 96% | Cmax (0.4 mg sublingual single dose): 0.50 ± 0.06 ng/mL | Tmax (0.4 mg sublingual single dose): 210 ± 40 min | systemic availability (0.4 mg sublingual single dose): 57.7% | Cmax (0.8 mg sublingual single dose): 1.04 ± 0.27 ng/mL | Tmax (0.8 mg sublingual single dose): 192 ± 49 min | systemic availability (0.8 mg sublingual single dose): 54.1% | mean peak plasma buprenorphine concentration ([5]; intramuscular second 0.3-mg dose 3 hours after the initial intravenous dose): about 3.6 ng/ml | plasma concentration ([5]; intramuscular second 0.3-mg dose, after about 3 hours): about 0.4 ng/ml | plasma concentration ([5]; intravenous about 0.3 mg, after about 5 minutes): about 9 ng/ml | plasma concentration ([5]; intravenous about 0.3 mg, after about 3 hours): about 0.4 ng/ml | mean peak plasma drug concentration [5, 6]: about 18 ng/ml | time of mean peak plasma concentration [5, 6]: ≤ 2 min
